Assay [1] concerns rat carotid artery injury model. Briefly: Restenosis inhibition in rat carotid artery injury model. Type of assay: in vivo. The source says: (§1) White rats weighed 350 to 400 g were anesthetized with ketamine and xylene, and their surgery regions were shaved and sterilized with betadine. Skin on the neck region was cut by about 2 cm, and a rat carotid artery was found using a mosquito. A blood flow was prevented by hanging a thread on the carotid artery and an internal carotid artery, followed by tying an external carotid artery with a thread. A 2F forgarty catheter (Baxter, US) was inserted into a blood vessel between the external carotid artery and the carotid artery to wound a carotid artery region three times. Then, the wounded carotid artery region was tied with a thread to allow a blood flow through the carotid artery and the internal carotid artery and prevent hemorrhage between the carotid artery and the external carotid artery, and the surgery region was closed with stitches. Each of rear neck skins were cut by approximately 1 cm, and an osmotic pump containing a drug is inserted into the blood vessel and closed with stitches. After 1 week to observe the endothelial cells and 2 weeks to observe the restenosis, all blood was extracted from each subject rat using a perfusion, carotid arteries were taken from the rats and their tissue slides were made to observe their section of blood vessel. […]

Assay [2] has as its system SMC (rat aortic smooth muscle cell). Kind of assay: Test of vascular smooth muscle cell proliferation (cell count). Type of assay: cell-based. As for the experimental part:
An SMC (rat aortic smooth muscle cell) cell line at 3-10 passages was incubated in a culture medium of SmGM (Smooth muscle cell growth medium, Cambrex) including 5% fetal bovine serum and 1% antibiotic antimycotic reagent (Gibco, US) under a standard culture condition ([…], 5% CO2, 37° C., 100% RH). 2×10^4 Cells were divided into a 24-well plate, and cultured for a day so that the cells can be fixed into the 24-well plate. The cells were washed three times with PBS, put into a solution of SmGM including 5% fetal bovine serum and 1% antibiotic-antimycotic (Gibco), and then incubated for a day. After the used medium was removed, an SmGM including 5% fetal bovine serum solution supplemented with a corresponding drug was added to the cells, and the cell solution was then cultured for two days. After the cell culture, morphology of the cells was observed under a microscope. Then, the cells were detached from the plate using trypsin, and counted using a hemacytometer. 0.1% DMSO dissolved in saline was used as the vehicle control.

Assay [3] concerns HUVEC (human umbrical vein endothelial cell). Briefly: Test of endothelial cell proliferation (cell count). The class given is cell-based. The note with it: for endothelial cell proliferation: drug alone, increasing concentration, two days, cell count (FIGS. 5, 8 to 10). As for the experimental part: An HUVEC (human umbrical vein endothelial cell, Cambrex, US) cell line at 3-10 passages was incubated in an EGM2 (endothelial growth medium, Cambrex, US) culture medium under a standard culture condition (O2 95%, 5% CO2, 37° C., 100% RH). 1×10^4 Cells was divided into a 24-well plate, and cultured for a day so that the cells can be fixed into the 24-well plate. In order to allow the cells to enter interphase, the cells were washed three times with PBS, and the EGM2 culture medium was replaced by EBM2 (endothelial basal medium, Cambrex) including 1% fetal bovine serum and 1% antibiotic-antimycotic (Gibco, US), and the cells were incubated for a day. After the used medium was removed, an EBM2 including 1% fetal bovine serum and 1% antibiotic-antimycotic (Gibco) solution supplemented with a drug was added to the cells, and the cell solution was then cultured for two days. After the cell culture, morphology of the cells was observed under a microscope. Then, the cells were detached from the plate using trypsin, and counted using a hemacytometer. 0.1% DMSO dissolved in saline was used as the vehicle control.

The test system of assay [4] is pig coronary stent model. Kind of assay: Restenosis inhibition in pig coronary stent model. Type of assay: in vivo. As to the method: (§2) All pigs receiving a surgical operation were treated with an antithrombotic agent ‘clopidogrel’ (35 mg/day) and aspirin (100 mg/day) before one week of the surgical operation. Pigs weighed 30 to 40 kg were anesthetized with ketamine (20 mg/kg IM) and xylazine (2 mg/kg IM), and their aesthesia was maintained by connecting an infusion set to their ear veins and allowing a ketamine/xylazine solution (ketamin 50 g+xylazine 10 g/500 ml saline) to flow in the ear veins according to the aesthesia state. Pig surgery regions were shaved, sterilized with betadine. Skin on the neck was cut by approximately 5 cm, and a pig carotid artery was found using a mosquito, and 1 ml of heparin (5,000 IU) was administered to pigs. Angiocardiography was performed using a SIREMOBIL 245B angiocardiographer (commercially available from Siemens). A stent (diameter: 3.0 mm; length: 15 mm) was used for surgical operation on LAD, RAD and RCX by expanding the stent at a ratio 1.3:1 of stent:vein diameter, and a position of stent transplantation was previously determined using the imaging system.
After 28 days, pigs were intravenously injected with KCl (40 meq/l) under a conventional aesthesia condition to induce pig cardioplegia, and hearts were extracted pigs. […]

Assay [5] has as its system rat carotid artery injury model. Briefly: Re-endothelization in rat carotid artery injury model (vWF staining). Type of assay: in vivo.
From the text: as §1

For assay [6], the system named is pig coronary stent model. Kind of assay: Re-endothelization in pig coronary stent model (vWF staining). The class given is in vivo. As to the method: as §2, with “system. […]” for “system.”
In order to observe a re-endothelization level by a drug, a tissue section slide of pig blood vessel was reacted at 4° C. with vWF (von willebrand factor, DakoCytomation, US) Ab that stains endothelial cells of mice. […] The tissue section slide was observed and photographed under a fluorescence microscope.

[7] abbreviates: isoxazole derivative together with rapamycin, versus rapamycin alone (FIG. 6).

`O=C(NCCc1ccncc1)c1cc(-c2ccco2)on1` [Derivative 5, 5-furan-2-yl-isoxazole-3-carboxylic acid (2-pyridin-4-yl-ethyl)-amide]: in assay [1] (200 μg/kg/day for two weeks by osmotic pump, versus not administered (FIG. 11)), the “restenotic area of the blood vessel” value was “more significantly reduced in size”. Also, the “restenosis inhibition effect, together with rapamycin” value in assay [1] (compound together with rapamycin versus compound only (FIG. 11, FIG. 13)) is on record as “more significant restenosis inhibition effect”. Also, the “cell number of vascular smooth muscle cells (VSMC)” value in assay [2] (drug alone, increasing concentration, two days (FIG. 5)) is given as “reduced”. The “vascular smooth muscle cell proliferation, used together with rapamycin” value in assay [2] (setting [7]) is reported as “inhibited more significantly”. Moreover, the endothelial cell proliferation result in assay [3] was “increases or maintains the proliferation of HUVEC”. Further, the “endothelial cell proliferation, used together with paclitaxel” value in assay [3] (isoxazole derivative together with paclitaxel, versus paclitaxel alone (FIG. 7)) was “recovered”. Also, the “endothelial cell proliferation, used together with rapamycin” value in assay [3] (setting [7]) is “recovered”. Besides, the “lumen losses of blood vessel” value in assay [4] (stent with 180 μg rapamycin plus 45, 90 or 180 μg derivative 5, 28 days, versus rapamycin-treated group (FIG. 14)) is listed as “further reduced”. Further, in assay [5] (200 μg/kg/day for two weeks, versus not administered (FIG. 12)), the “re-endothelization on damaged carotid artery surface” value is listed as “occurs more significantly”. For the same molecule, the “re-endothelization, together with rapamycin” value in assay [5] (compound together with rapamycin versus compound only (FIG. 13)) is “more significantly increased”. Besides, the “re-endothelization on the damaged artery surface” value in assay [6] (4 weeks, stent with rapamycin plus derivative 5 (FIG. 15)) was “significantly recovered”.

Consider `Cn1nnnc1SCCNC(=O)c1cc(-c2cccs2)on1` [Derivative 68, 5-thiophen-2-yl-isoxazole-3-carboxylic acid [2-(1-methyl-1H-tetrazol-5-yl-sulfanyl)-ethyl]-amide], for which the endothelial cell proliferation entry in assay [3] is given as “inhibit or maintain the proliferation of the endothelial cells”. With `O=C(NCCCn1cncn1)c1cc(-c2cccs2)on1` [Derivative 50, 5-thiophen-2-yl-isoxazole-3-carboxylic acid (3-[1,2,4]-triazol-1-yl-propyl)-amide], the endothelial cell proliferation result in assay [3] is reported as “inhibit or maintain the proliferation of the endothelial cells”. In the case of `Cn1cnnc1S(=O)(=O)CCNC(=O)c1cc(-c2ccco2)on1` [Derivative 70, 5-furan-2-yl-isoxazole-3-carboxylic acid [2-(4-methyl-4H-[1,2,4]triazol-3-yl-sulfonyl)-ethyl]-amide], in assay [3], the endothelial cell proliferation result is on record as “inhibit or maintain the proliferation of the endothelial cells”. As for `O=C(NCCCn1ccnc1)c1cc(-c2ccsc2)on1` [Derivative 63, 5-thiophen-3-yl-isoxazole-3-carboxylic acid (3-imidazol-1-yl-propyl)-amide], the endothelial cell proliferation result in assay [3] is recorded as “inhibit or maintain the proliferation of the endothelial cells”. Still for that read-out and setting: the same measure for `O=C(NCCCn1cncn1)c1cc(-c2ccc(F)cc2)on1` [Derivative 31, 5-(4-fluoro-phenyl)-isoxazole-3-carboxylic acid (3-[1,2,4]triazol-1-yl-propyl)-amide]: “inhibit or maintain the proliferation of the endothelial cells”; for `O=C(NCCCn1cncn1)c1cc(-c2ccco2)on1` [Derivative 19, 5-furan-2-yl-isoxazole-3-carboxylic acid (3-[1,2,4]triazol-1-yl-propyl)-amide]: “inhibit or maintain the proliferation of the endothelial cells”. On to `O=C(NCCCn1ccnc1)c1cc(-c2ccccc2)on1` [Derivative 23, 5-phenyl-isoxazole-3-carboxylic acid (3-imidazol-1-yl-propyl)-amide], for which, in assay [3], the endothelial cell proliferation entry is listed as “inhibit or maintain the proliferation of the endothelial cells”. The same measure, in the same setting: with `CC(=O)O[C@H]1C(=O)[C@@]2(C)[C@H]([C@H](OC(=O)c3ccccc3)[C@]3(O)C[C@H](OC(=O)[C@H](O)[C@@H](NC(=O)c4ccccc4)c4ccccc4)C(C)=C1C3(C)C)[C@]1(OC(C)=O)CO[C@@H]1C[C@@H]2O` [paclitaxel, reference compound] the entry was “inhibit the proliferation of HUVEC”. With `O=C(NCCn1cncn1)c1cc(-c2ccc(F)cc2)on1` [Derivative 35, 5-(4-fluoro-phenyl)-isoxazole-3-carboxylic acid (2-[1,2,4]triazol-1-yl-ethyl)-amide], the endothelial cell proliferation result in assay [3] is given as “inhibit or maintain the proliferation of the endothelial cells”. As to `CO[C@H]1C[C@@H]2CC[C@@H](C)[C@@](O)(O2)C(=O)C(=O)N2CCCC[C@H]2C(=O)O[C@H]([C@H](C)C[C@@H]2CC[C@@H](O)[C@H](OC)C2)CC(=O)[C@H](C)/C=C(\C)[C@@H](O)[C@@H](OC)C(=O)[C@H](C)C[C@H](C)/C=C/C=C/C=C/1C` [rapamycin, reference compound], the “restenotic areas of blood vessels” value in assay [4] (stent with PLGA polymer and drug, after 28 days, negative control 2.74 mm^2 (FIG. 14)) was determined as 1.80 mm^2. The “re-endothelization rate (healing %)” value in assay [6] (drug-containing PLGA stent, polymer-coated stent 80.2% (FIG. 15)) was found to be 67.9%.

With `O=C(NCCn1ccnc1)c1cc(-c2ccco2)on1` [Derivative 4, 5-furan-2-yl-isoxazole-3-carboxylic acid (2-imidazol-1-yl-ethyl)-amide], the endothelial cell proliferation entry in assay [3] is recorded as “inhibit or maintain the proliferation of the endothelial cells”. The same measure, in the same setting: the same measure for `O=C(NCCCn1cncn1)c1cc(-c2ccsc2)on1` [Derivative 62, 5-thiophen-3-yl-isoxazole-3-carboxylic acid (3-[1,2,4]-triazol-1-yl-propyl)-amide]: “inhibit or maintain the proliferation of the endothelial cells”; for `O=C(NCCCSc1nnc[nH]1)c1cc(-c2cccs2)on1` [Derivative 69, 5-thiophen-2-yl-isoxazole-3-carboxylic acid [3-(4H-[1,2,4]triazol-3-yl-sulfanyl)-propyl]-amide]: “inhibit or maintain the proliferation of the endothelial cells”.

The values are drawn from patent publication US8518978B2, “Pharmaceutical composition for prevention and treatment of restenosis comprising isoxazole derivatives” (SK Biopharmaceuticals Co., Ltd., priority 2007, dated 2013).
